Experimental data taken from article PMC3389674, “Comparison of Soluble Guanylate Cyclase Stimulators and Activators in Models of Cardiovascular Disease Associated with Oxidative Stress” (Frontiers in Pharmacology, 2012).

Assays:
OATP1B1 = target: T1, OATP1B1 (Homo sapiens, UniProt Q9Y6L6); test: in vitro selectivity profile: OATP1B1 transporter activity; format: cell-based
T1 sequence (Q9Y6L6 1-691): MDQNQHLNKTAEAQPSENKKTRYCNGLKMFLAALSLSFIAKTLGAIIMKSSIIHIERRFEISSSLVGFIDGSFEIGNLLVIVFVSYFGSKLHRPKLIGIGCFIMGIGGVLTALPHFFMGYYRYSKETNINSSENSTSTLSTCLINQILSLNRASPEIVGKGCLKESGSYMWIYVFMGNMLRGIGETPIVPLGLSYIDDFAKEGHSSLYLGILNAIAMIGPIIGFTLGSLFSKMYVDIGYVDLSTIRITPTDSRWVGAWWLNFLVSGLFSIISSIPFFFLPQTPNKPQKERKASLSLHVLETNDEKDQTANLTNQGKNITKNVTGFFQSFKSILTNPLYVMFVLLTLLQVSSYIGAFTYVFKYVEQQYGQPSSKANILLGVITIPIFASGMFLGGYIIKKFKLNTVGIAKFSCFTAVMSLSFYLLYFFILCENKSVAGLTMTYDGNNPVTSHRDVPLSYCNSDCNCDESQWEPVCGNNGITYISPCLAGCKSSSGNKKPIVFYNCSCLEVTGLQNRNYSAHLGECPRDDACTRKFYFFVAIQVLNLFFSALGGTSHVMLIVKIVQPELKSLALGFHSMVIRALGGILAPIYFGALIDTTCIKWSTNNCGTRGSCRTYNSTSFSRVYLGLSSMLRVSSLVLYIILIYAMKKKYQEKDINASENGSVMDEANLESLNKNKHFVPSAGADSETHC
Description: (§1) The secondary pharmacological profile (i.e., sGC-independent activity) of GSK2181236A was assessed in cell-based functional assays by characterizing the interaction between GSK2181236A and 38 distinct human enzymes, ion channels, transporters, and G-protein-coupled receptors including 5-HT (5-HT1B/2A/2C/3), 5-HT transporter (SERT), adenosine (A2a), adrenergic (α1B/2C, β2), Aurora B kinase, cycoloxygenase-2 (COX-2), CaV1.2, cytochrome P450 (CYP2C19, 2D6, and 3A4), dopamine (D2), dopamine transporter (DAT), gamma-aminobutyric acid (GABAA), glycogen synthase kinase-3 (GSK3β) histamine (H1), KV1.5, KV7.1, KV11.1, lymphocyte-specific protein tyrosine kinase (LCK), L-monoamine oxidase (MAO-B) muscarinic (M1/2), NaV1.5, nicotinic (α1 nAChR), noradrenaline transporter (NET), opioid (κ, μ), organic anion transporting polypeptide C (OATP1B1), phosphodiesterase 5 (PDE5), phosphatidylinositol 3-kinase (PI3Kγ), pregnane X receptor (PXR), tachykinin (NK1), and vasopressin (V1a).

[1] = tested on: all other proteins tested (human enzymes, ion channels, transporters, and G-protein-coupled receptors); test: in vitro selectivity profile: cell-based functional assays, other non-sGC proteins
Description: as §1

human sGC = target: T2, human sGC (Homo sapiens, UniProt Q02153); test: primary cell-free human sGC enzyme assay (cGMP formation); format: biochemical; settings: data not shown
T2 sequence (Q02153 1-619): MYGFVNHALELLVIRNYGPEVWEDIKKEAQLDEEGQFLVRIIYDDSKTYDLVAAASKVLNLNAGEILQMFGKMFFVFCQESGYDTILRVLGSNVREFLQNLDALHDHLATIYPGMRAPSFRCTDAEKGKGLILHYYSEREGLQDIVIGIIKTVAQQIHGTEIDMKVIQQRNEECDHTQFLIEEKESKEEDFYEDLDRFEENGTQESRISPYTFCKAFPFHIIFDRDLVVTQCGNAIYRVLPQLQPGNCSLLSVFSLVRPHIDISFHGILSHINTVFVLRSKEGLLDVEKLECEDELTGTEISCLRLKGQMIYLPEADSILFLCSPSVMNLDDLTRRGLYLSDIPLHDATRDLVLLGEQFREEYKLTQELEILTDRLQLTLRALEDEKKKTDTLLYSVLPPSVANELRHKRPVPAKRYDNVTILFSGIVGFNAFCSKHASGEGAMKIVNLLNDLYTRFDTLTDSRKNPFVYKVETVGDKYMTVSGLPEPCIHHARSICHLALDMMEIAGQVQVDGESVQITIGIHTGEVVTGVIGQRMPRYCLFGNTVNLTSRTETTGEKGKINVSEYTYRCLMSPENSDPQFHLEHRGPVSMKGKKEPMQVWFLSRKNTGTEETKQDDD
T2 sequence (Q02108 1-690 partner): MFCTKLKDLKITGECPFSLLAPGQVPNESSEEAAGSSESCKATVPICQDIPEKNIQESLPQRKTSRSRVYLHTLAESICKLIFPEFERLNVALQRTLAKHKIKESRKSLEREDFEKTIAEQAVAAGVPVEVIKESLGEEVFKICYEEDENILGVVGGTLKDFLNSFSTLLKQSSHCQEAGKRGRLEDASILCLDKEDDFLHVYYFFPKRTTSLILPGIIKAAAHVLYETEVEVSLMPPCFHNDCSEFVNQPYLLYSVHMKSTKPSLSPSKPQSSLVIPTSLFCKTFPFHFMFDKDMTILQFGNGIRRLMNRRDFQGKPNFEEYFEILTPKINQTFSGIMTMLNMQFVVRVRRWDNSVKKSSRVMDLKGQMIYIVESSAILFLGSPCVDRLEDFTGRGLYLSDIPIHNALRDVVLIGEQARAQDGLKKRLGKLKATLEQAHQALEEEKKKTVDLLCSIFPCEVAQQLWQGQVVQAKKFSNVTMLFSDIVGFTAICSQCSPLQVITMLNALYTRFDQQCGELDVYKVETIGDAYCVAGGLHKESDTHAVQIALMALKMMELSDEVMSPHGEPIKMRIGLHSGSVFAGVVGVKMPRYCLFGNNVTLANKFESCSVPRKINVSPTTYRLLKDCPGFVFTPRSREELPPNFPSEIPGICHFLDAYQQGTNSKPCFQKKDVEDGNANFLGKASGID

Compound: Cc1cc(-c2ccc(OC(F)(F)F)cc2)ccc1COc1ccccc1-c1cccc(-n2ncc(C(=O)O)c2C(F)(F)F)n1 [GSK2181236A, 1-(6-{2-[({3-methyl-4′-[(trifluoromethyl)oxy]-4-biphenylyl}methyl)oxy]phenyl}-2-pyridinyl)-5-(trifluoromethyl)-1H-pyrazole-4-carboxylic acid]
- selectivity ratio (OATP1B1; human, cell-based functional assay (human OATP1B1 transporter), vs P-VASP EC50 12.7 nM, read-out: selectivity for sGC over OATP1B1): 23
- IC50 (OATP1B1; read-out: IC50, inhibition of transporter activity): 300 nM
- Interactions (EC50s or IC50s) at all other proteins tested [1]: ≥ 2500 nM
- interaction with sGC more potent than any other non-sGC protein tested ([1]; cell-based assays): at least 23 fold
- selectivity for sGC over all other tested proteins ([1]; vs P-VASP EC50 12.7 nM): ≥ 197 fold
- EC50 (human sGC): 25 nM
